The target of this assay is T1, 5-lipoxygenase (5-LO) (Homo sapiens, UniProt P09917).
T1 construct: gene ALOX5
T1 sequence (P09917 1-674): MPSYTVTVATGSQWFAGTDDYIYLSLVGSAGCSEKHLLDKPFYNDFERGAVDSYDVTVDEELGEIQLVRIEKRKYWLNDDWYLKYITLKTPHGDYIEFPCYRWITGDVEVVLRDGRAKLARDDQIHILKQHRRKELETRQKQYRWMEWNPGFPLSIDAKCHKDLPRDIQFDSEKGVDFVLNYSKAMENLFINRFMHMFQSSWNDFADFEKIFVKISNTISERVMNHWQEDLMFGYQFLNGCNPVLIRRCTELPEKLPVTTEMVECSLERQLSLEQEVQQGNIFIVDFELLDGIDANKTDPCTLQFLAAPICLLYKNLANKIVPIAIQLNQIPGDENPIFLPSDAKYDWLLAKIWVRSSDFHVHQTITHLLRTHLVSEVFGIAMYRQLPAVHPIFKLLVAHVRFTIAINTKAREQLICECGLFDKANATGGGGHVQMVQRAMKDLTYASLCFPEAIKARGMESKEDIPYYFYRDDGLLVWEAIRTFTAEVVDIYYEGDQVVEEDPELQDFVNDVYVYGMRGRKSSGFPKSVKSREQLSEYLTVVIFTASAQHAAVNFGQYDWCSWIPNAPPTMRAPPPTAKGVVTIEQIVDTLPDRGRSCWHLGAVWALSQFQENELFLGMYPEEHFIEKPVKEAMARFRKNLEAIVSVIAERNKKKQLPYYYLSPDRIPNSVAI
T1 sequence (P20292 1-161 partner): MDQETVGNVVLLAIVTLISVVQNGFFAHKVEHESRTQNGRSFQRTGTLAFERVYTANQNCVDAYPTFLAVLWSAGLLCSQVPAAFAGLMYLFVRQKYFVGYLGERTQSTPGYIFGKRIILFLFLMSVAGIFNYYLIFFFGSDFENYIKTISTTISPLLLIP
The assay is described as follows: 5-LO product biosynthesis (RP-HPLC) in thapsigargin-stimulated human PMNL; also HEK293 cells expressing 5-LO and FLAP. The assay is classed as cell-based. The conditions noted are these: read-out: IC50 (μM) [SEM]^*.

As usually defined, the IC50 is the concentration that gives 50% inhibition. Take `O=C(/C=C/c1ccc(O)c(O)c1)OCCc1ccccc1` [compound 3, CAPE]: the IC50 worked out at 1.11 µM.

For the origin of these results see paper PMC4365380, “Synthesis and Biological Activity of Arylspiroborate Salts Derived from Caffeic Acid Phenethyl Ester” (International Journal of Medicinal Chemistry, 2015).
